Our source for the half-life and IC50 values is patent US9809623B2, “α4β7 peptide monomer and dimer antagonists” (Protagonist Therapeutics, Inc., priority 2014, dated 2017).

A short description of series [1]: Simulated Intestinal Fluid (SIF) Stability Assay. Format: in vitro ADME, porcine. The settings on record: pig, simulated intestinal fluid (SIF) with 1% porcine pancreatin, pH 6.5, Table 4-C, t1/2; > means assay stopped at that time; read-out: SIF (porcine) Min. In a few lines: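 Peptides (22 μM final) incubated at 37 °C in FASSIF (pH 6.5) with 1% porcine pancreatin; aliquots quenched at various times and analyzed by LC-MS/MS against internal standard. Half-life from first-order exponential decay fit of percent remaining.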

A further series has as its target T1, α4β1 (Homo sapiens, UniProt P05556+P13612, DEL729-798).
T1 construct: purchased R&D Systems 5668-A4
Nature of the series: α4β1-VCAM Competition ELISA. It is filed as binding. The settings on record: Table 4-B; read-out: ELISA_α4β1 IC50. In a few lines:
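Recombinant α4β1 (60 nM final) competed with serially diluted peptides (top final 100 μM) for VCAM-1 Fc coated at 400 ng/well, in Tris pH 7.6 with 1 mM MnCl2 or MgCl2, for 2 h at 37 °C. Bound integrin was detected with anti-CD49d 9F10 plus HRP anti-mouse IgG, using TMB read at 450 nm.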

In another series the target is T2, rh integrin α4β7 (Homo sapiens, UniProt P13612+P26010).
T2 construct: purchased R&D Systems 5397-A30
T2 sequence (P13612 34-977 limits assumed): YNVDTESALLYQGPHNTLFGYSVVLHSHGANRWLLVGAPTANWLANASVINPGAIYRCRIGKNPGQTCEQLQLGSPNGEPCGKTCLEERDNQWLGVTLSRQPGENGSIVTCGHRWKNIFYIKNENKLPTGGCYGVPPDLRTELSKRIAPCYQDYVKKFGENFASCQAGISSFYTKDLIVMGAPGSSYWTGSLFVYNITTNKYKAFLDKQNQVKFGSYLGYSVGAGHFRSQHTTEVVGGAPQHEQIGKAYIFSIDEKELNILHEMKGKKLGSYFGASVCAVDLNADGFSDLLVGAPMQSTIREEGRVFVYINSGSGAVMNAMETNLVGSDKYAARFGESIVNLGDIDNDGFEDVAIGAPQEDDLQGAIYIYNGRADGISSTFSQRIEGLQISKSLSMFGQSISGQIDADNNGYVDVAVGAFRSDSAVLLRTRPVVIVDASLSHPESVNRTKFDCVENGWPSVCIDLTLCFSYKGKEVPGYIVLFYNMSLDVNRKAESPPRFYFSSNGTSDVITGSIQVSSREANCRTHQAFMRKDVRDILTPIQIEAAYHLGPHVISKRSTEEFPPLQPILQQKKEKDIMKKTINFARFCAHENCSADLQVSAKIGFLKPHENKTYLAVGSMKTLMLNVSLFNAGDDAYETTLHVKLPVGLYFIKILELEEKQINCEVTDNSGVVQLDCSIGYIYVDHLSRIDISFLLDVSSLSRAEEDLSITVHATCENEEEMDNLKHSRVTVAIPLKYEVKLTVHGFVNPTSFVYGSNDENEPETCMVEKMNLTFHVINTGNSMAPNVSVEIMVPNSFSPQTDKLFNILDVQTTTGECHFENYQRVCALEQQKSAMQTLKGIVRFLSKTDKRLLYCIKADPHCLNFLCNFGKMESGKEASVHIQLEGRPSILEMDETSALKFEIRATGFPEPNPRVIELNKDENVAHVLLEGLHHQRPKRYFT
T2 sequence (P26010 20-723 limits assumed): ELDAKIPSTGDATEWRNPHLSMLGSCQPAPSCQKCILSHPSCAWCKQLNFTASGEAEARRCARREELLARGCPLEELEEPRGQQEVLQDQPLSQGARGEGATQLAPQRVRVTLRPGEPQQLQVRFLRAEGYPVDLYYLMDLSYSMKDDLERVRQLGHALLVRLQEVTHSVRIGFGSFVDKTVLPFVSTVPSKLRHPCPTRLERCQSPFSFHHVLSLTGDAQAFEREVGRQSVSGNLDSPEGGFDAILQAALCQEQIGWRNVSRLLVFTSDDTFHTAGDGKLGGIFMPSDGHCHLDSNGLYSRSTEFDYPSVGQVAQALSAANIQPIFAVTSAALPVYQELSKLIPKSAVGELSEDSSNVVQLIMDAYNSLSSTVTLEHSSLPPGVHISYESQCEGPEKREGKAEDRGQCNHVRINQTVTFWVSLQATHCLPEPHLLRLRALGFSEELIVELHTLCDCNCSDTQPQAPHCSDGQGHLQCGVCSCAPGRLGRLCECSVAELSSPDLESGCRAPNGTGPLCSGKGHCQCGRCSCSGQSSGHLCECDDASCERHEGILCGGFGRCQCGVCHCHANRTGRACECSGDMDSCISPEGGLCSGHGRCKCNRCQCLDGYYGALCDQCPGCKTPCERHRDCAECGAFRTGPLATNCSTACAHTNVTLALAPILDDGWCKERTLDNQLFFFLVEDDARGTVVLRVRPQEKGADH
The series is described as follows: α4β7-MAdCAM Competition ELISA. It is filed as binding. The settings on record: Table 4-B; read-out: ELISA α4β7 IC50. In a few lines: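 Recombinant human α4β7 was captured on nickel plates at 800 ng/well. Peptide in 3-fold serial dilution (final top 10 μM) competed with MAdCAM-1 (final 10 nM) for 1 h at room temperature in 50 mM Tris pH 7.6, 150 mM NaCl, 1 mM MnCl2 or MgCl2. Bound MAdCAM-1 was detected with anti-human IgG1-HRP/TMB at A450.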
Background: In an ELISA, binding on a coated surface is turned into a signal by an enzyme label.

One may read the IC50 as the concentration that gives 50% inhibition.

Numbered stars: 1 amine (or outer) side, 2 acyl side, 3 side chain; on linkers, the order of the positions; unused ones are H or OH. Bridge positions count the residues as written; N and C are the ends. Square brackets hold non-standard residues; d marks the D form. Peptide text beside a SMILES is read from it. I, II: the chains in the order shown. Diglycolyl = O=C(COCC(=O)[*:2])[*:1]; NMeR = CN[C@@H](CCCNC(=N)N)C(=O)O; β3hE = N[C@@H](CCC(=O)O)CC(=O)O; Pen = CC(C)(S)[C@H](N)C(=O)O

T1 sequence (P13612 34-977 limits assumed, stated change not applied): as the sequence (P13612 34-977 limits assumed) above
T1 sequence (P05556 21-728 limits assumed, stated change not applied): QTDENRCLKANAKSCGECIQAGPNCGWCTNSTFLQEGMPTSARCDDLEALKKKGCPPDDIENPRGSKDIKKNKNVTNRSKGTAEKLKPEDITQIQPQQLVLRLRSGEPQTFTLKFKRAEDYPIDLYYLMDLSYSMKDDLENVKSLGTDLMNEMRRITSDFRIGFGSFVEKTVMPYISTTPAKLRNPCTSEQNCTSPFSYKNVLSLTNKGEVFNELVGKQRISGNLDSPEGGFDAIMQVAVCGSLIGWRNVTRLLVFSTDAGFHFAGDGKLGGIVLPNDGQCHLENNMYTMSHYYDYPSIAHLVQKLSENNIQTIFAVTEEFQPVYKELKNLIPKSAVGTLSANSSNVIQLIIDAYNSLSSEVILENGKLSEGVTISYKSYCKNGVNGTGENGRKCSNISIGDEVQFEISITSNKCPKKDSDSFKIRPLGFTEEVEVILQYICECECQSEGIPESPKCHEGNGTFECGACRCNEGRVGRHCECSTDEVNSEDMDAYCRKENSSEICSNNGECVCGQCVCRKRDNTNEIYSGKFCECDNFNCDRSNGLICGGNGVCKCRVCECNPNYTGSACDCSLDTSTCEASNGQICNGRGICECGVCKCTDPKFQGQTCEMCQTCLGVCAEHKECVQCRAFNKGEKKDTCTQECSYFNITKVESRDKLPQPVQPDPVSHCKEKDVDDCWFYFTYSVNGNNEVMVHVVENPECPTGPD

For the compound `CC(=O)N[C@H]1CSSC(C)(C)[C@@H](C(=O)N[C@@H](Cc2c[nH]c3ccccc23)C(=O)N[C@H](CCCCNC(=O)COCC(=O)NCCCC[C@@H](NC(=O)[C@H](Cc2c[nH]c3ccccc23)NC(=O)[C@H]2NC(=O)[C@H](CC(C)C)NC(=O)[C@H]([C@@H](C)O)NC(=O)[C@H](CC(=O)O)NC(=O)[C@H](CO)NC(=O)[C@H](CCCNC(=N)N)N(C)C(=O)[C@@H](NC(C)=O)CSSC2(C)C)C(N)=O)C(N)=O)NC(=O)[C@H](CC(C)C)NC(=O)[C@H]([C@@H](C)O)NC(=O)[C@H](CC(=O)O)NC(=O)[C@H](CO)NC(=O)[C@H](CCCNC(=N)N)N(C)C1=O` [compound 204, (Ac-C-N-Me-R-S-D-T-L-Pen-W-k-NH2)2-DIG] (I: Ac-C[NMeR]SDTL[Pen]W[dK]-NH2 / II: Ac-C[NMeR]SDTL[Pen]W[dK]-NH2; disulfide I:1-I:7, II:1-II:7 (inferred); linker I:9-II:9 via Diglycolyl (inferred)), the half-life at 22 μM in series [1] is > 360 min. Further, the IC50 at α4β1 is 463 nM; on rh integrin α4β7, 2 nM.

Regarding `CC(=O)N[C@H]1CSSC[C@@H](C(N)=O)NC(=O)[C@H](CC(C)C)NC(=O)[C@H]([C@@H](C)O)NC(=O)[C@H](CC(=O)O)NC(=O)[C@H](CO)NC(=O)[C@H](CCCNC(=N)N)NC1=O` [compound 195, Ac-C-R-S-D-T-L-C-NH2] (Ac-CRSDTLC-NH2; disulfide 1-7), in series [1], the half-life at 22 μM was < 1 min. The half-inhibitory concentration (IC50) is 2880 nM on α4β1 and 97 nM on rh integrin α4β7.

As for `CC(=O)N[C@H]1CSSC[C@@H](C(=O)NCC(=O)N[C@@H](CCC(=O)O)C(=O)N[C@@H](CCCCNC(=O)COCC(=O)NCCCC[C@H](NC(=O)[C@H](CCC(=O)O)NC(=O)CNC(=O)[C@@H]2CSSC[C@H](NC(C)=O)C(=O)N(C)[C@@H](CCCNC(=N)N)C(=O)N[C@@H](CO)C(=O)N[C@@H](CC(=O)O)C(=O)N[C@@H]([C@@H](C)O)C(=O)N[C@@H](CC(C)C)C(=O)N2)C(=O)O)C(=O)O)NC(=O)[C@H](CC(C)C)NC(=O)[C@H]([C@@H](C)O)NC(=O)[C@H](CC(=O)O)NC(=O)[C@H](CO)NC(=O)[C@H](CCCNC(=N)N)N(C)C1=O` [compound 201, (Ac-C-N-Me-R-S-D-T-L-C-G-E-K-OH)2-DIG] (I: Ac-C[NMeR]SDTLCGEK-OH / II: Ac-C[NMeR]SDTLCGEK-OH; disulfide I:1-I:7, II:1-II:7 (inferred); linker I:10-II:10 via Diglycolyl (inferred)), the half-life at 22 μM in series [1] is 18 min. The IC50 at α4β1 was found to be 1240 nM; at rh integrin α4β7, 1 nM.

For the compound `CC(=O)N[C@@H]1C(=O)N(C)[C@@H](CCCNC(=N)N)C(=O)N[C@@H](CO)C(=O)N[C@@H](CC(=O)O)C(=O)N[C@@H]([C@@H](C)O)C(=O)N[C@@H](CC(C)C)C(=O)N[C@H](C(=O)N[C@@H](Cc2c[nH]c3ccccc23)C(=O)N[C@@H](CCC(=O)O)CC(=O)N[C@H](CCCCNC(=O)COCC(=O)NCCCC[C@@H](NC(=O)C[C@H](CCC(=O)O)NC(=O)[C@H](Cc2c[nH]c3ccccc23)NC(=O)[C@H]2NC(=O)[C@H](CC(C)C)NC(=O)[C@H]([C@@H](C)O)NC(=O)[C@H](CC(=O)O)NC(=O)[C@H](CO)NC(=O)[C@H](CCCNC(=N)N)N(C)C(=O)[C@@H](NC(C)=O)C(C)(C)SSC2(C)C)C(N)=O)C(N)=O)C(C)(C)SSC1(C)C` [compound 213, [Ac-Pen-(N-Me-Arg)-Ser-Asp-Thr-Leu-Pen-Trp-(β-homoGlu)-(D-Lys)-NH2]2-DIG] (I: Ac-[Pen][NMeR]SDTL[Pen]W[β3hE][dK]-NH2 / II: Ac-[Pen][NMeR]SDTL[Pen]W[β3hE][dK]-NH2; disulfide I:1-I:7, II:1-II:7; linker I:10-II:10 via Diglycolyl), the half-life at 22 μM in series [1] was > 180 min. Besides, the figures for the concentration for half-maximal inhibition (IC50) at α4β1 and at rh integrin α4β7 were 539 nM and 4.7 nM, respectively.

Consider `CC(=O)N[C@H]1CSSC[C@@H](C(=O)NCC(=O)N[C@@H](CCC(=O)O)C(=O)N[C@@H](CCCCN)C(N)=O)NC(=O)[C@H](CC(C)C)NC(=O)[C@H]([C@@H](C)O)NC(=O)[C@H](CC(=O)O)NC(=O)[C@H](CO)NC(=O)[C@H](CCCNC(=N)N)NC1=O` [compound 196, Ac-C-R-S-D-T-L-C-G-E-K-NH2] (Ac-CRSDTLCGEK-NH2; disulfide 1-7), for which, in series [1], the half-life at 22 μM was < 4 min. Besides, the half-inhibitory concentration (IC50) on α4β1 was determined as 4810 nM; on rh integrin α4β7, 87 nM.
